This note sets out measurements from patent US20240391862A1, “(1,4,5-TRISUBSTITUTED-1H-PYRAZOL-3-YL)OXY-2-ALKOXY ALKYL ACIDS AND THEIR DERIVATIVES, THEIR SALTS AND THEIR USE AS HERBICIDAL AGENTS” (Bayer AKtiengesellschaft, priority 2021, published 2024).

The test system of one test is GLXMA. Briefly: Pre-emergence herbicidal effect and crop plant compatibility, greenhouse pot test. Format: in vivo, Glycine max. The conditions noted are these: 80 g/ha, scored visually after about 3 weeks vs untreated controls. The text has this:
(§1) Seeds of monocotyledonous and dicotyledonous weed plants and crop plants are placed in plastic or organic planting pots and covered with soil. The compounds of the invention, formulated in the form of wettable powders (WP) or as emulsion concentrates (EC), are then applied to the surface of the covering soil as aqueous suspension or emulsion with addition of 0.5% additive at a water application rate equivalent to 600 l/ha. After the treatment, the pots are placed in a greenhouse and kept under good growth conditions for the trial plants. After about 3 weeks, the effect of the preparations is scored visually in comparison with untreated controls as percentages. For example, 100% activity=the plants have died, 0% activity=like control plants.
(§2) Tables 1a to 19c below show the effects/crop compatibilities of selected compounds of the general formula (I) on various harmful plants at an application rate corresponding to 20 to 320 g/ha, which were obtained by the trial procedure specified above.
(§3) • ALOMY: Alopecurus myosuroides SETVI: Setaria viridis • AVEFA: Avena fatua POLCO: Fallopia convolvulus • AMARE: Amaranthus retroflexus ECHCG: Echinochloa crus-galli • LOLRJ: Lolium rigidum STEME: Stellaria media • VERPE: Veronica persica MATIN: Tripleurospermum inodorum • DIGSA: Digitaria sanguinalis ABUTH: Abutylon threophrasti • TRZAS: Triticum aestivum VIOTR: Viola tricolor • BRSNW: Brassica napus ZEAMX: Zea mays • PHBPU: Ipomoea purpurea GLXMA: Glycine max • ORYSA: Oryza sativa HORMU: Hordeum murinum

In the next test the test system is VERPE. Briefly: Pre-emergence herbicidal effect, greenhouse pot test. The format is in vivo, Veronica persica. As to conditions: scored visually after about 3 weeks vs untreated controls.
Source text: as §1, §2, §3

The subject of a further test is POLCO. Briefly: Post-emergence herbicidal effect, greenhouse pot test. The format is in vivo, Fallopia convolvulus. As to conditions: Fallopia convolvulus, 504 h, read-out: Post-emergence effect against POLCO in %. In short, it runs like this: (§4)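 Sandy loam pots, greenhouse. One-leaf stage (2–3 wk after sowing) foliar spray; WP/EC in water + 0.5% additive, 600 l/ha; 20–320 g/ha. Visual score ~3 wk, 0–100% vs untreated.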

The subject of a further test is various unwanted plants. The test can be described thus: Pre-emergence effect against various unwanted plants (PE): comparative test of I-01 with compounds from WO2020/245044 (Tables 40a, 40b) and summary statements. Format: in vivo. The text has this:
Seeds of monocotyledonous and dicotyledonous weed plants and crop plants are placed in plastic or organic planting pots and covered with soil. The compounds of the invention, formulated in the form of wettable powders (WP) or as emulsion concentrates (EC), are then applied to the surface of the covering soil as aqueous suspension or emulsion with addition of 0.5% additive at a water application rate equivalent to 600 l/ha. After the treatment, the pots are placed in a greenhouse and kept under good growth conditions for the trial plants. After about 3 weeks, the effect of the preparations is scored visually in comparison with untreated controls as percentages. For example, 100% activity=the plants have died, 0% activity=like control plants. Tables 40a and 40b below show the effects of the inventive compound (I-01) with structurally similar compounds (from WO2020/245044) on various harmful plants at an application rate corresponding to 320 g/ha or less, which have been obtained by the trial procedure specified hereinafter. The inventive compound (I-01) differs here by variance of a significant structural feature from the structurally similar compound with regard to the R^2 radical. Seeds of monocotyledonous and dicotyledonous weed plants and crop plants are placed in plastic or organic planting pots and covered with soil. The compounds of the invention, formulated in the form of wettable powders (WP) or as emulsion concentrates (EC), are then applied to the surface of the covering soil as aqueous suspension or emulsion with addition of 0.5% additive at a water application rate equivalent to 600 l/ha. After the treatment, the pots are placed in a greenhouse and kept under good growth conditions for the trial plants. After about 3 weeks, the effect of the preparations is scored visually in comparison with untreated controls as percentages. For example, 100% activity=the plants have died, 0% activity=like control plants. Effects/crop compatibilities of selected compounds (Table 39) on various harmful plants at an application rate corresponding to 80 to 320 g/ha that have been obtained by the trial procedure specified hereinabove are shown in Tables 40a and 40b below.

A further test deals with ABUTH. The test can be described thus: Pre-emergence herbicidal effect, greenhouse pot test. Format: in vivo, Abutilon theophrasti. As to conditions: 320 g/ha, scored visually after about 3 weeks vs untreated controls.
Source text: as §1, §2, §3

Another test relates to AVEFA. The test is described as above. Format: in vivo, Avena fatua. As to conditions: 320 g/ha, scored visually after about 3 weeks vs untreated controls. A digest of the protocol:
(§5)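 Pre-em soil-surface spray, WP/EC formulations in water + 0.5% additive, 600 l/ha, 20–320 g/ha; pots held in greenhouse ~3 wk; % activity scored visually vs untreated (0% = control, 100% = dead).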

In the next test the test system is PHBPU. Described as above. Format: in vivo, Ipomoea purpurea. The conditions noted are these: scored visually after about 3 weeks vs untreated controls. In short, it runs like this:
as §5

Another test relates to VIOTR. Described as above. The format is in vivo, Viola tricolor. As to conditions: scored visually after about 3 weeks vs untreated controls.
Source text: as §1, §2, §3

The test system of test [1] is DIGSA. Described as above. The format is in vivo, Digitaria sanguinalis. The conditions noted are these: 320 g/ha, scored visually after about 3 weeks vs untreated controls. In short, it runs like this: as §5
Another test deals with ZEAMX. Briefly: Post-emergence herbicidal effect and crop plant compatibility, greenhouse pot test. Format: in vivo, Zea mays. The conditions noted are these: Zea mays, 504 h, 80 g/ha, one-leaf stage, rated visually after about 3 weeks vs untreated controls, read-out: Post-emergence effect at 80 g/ha against ZEAMX in %. A digest of the protocol: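 Visual % activity scored roughly 3 weeks post-spray against untreated plants, where 100% means death and 0% equals control. Plants were treated at the one-leaf stage, 2 to 3 weeks after sowing in sandy loam, at 20 to 320 g/ha.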

Test [2] relates to DIGSA. Briefly: Post-emergence herbicidal effect, greenhouse pot test. Format: in vivo, Digitaria sanguinalis. The conditions noted are these: Digitaria sanguinalis, 504 h, visual rating about 3 weeks after treatment, read-out: Post-emergence effect against DIGSA. A digest of the protocol: as §4

In the case of `CCOC(=O)C(OCC)Oc1nn(-c2ccccc2F)c(-c2ccc(F)nc2)c1Br` (racemic) [Example I-01, Ethyl (2RS)-{[4-bromo-1-(2-fluorophenyl)-5-(6-fluoropyridin-3-yl)-1H-pyrazol-3-yl]oxy}(ethoxy)acetate], in the test on GLXMA, the “Pre-emergence effect at 80 g/ha against GLXMA in %” value is on record as 0%. The “Pre-emergence effect at 320 g/ha against VERPE in %” value in the test with VERPE was 80%. In addition, in the test on POLCO (80 g/ha), the pest or weed control at 80 g/ha stood at 80%. In addition, the pest or weed control at 320 g/ha with POLCO stood at 80%. The “Pre-emergence effect, Effect %, ALOMY” value with various unwanted plants (ALOMY, 320 g/ha, comparative test) is listed as 90%. In addition, in the test with various unwanted plants (80 g/ha, comparative test), the “Pre-emergence effect, Effect %, ECHCG” value was 70%; the “Pre-emergence effect, Effect %, LOLRI” value is listed as 90%; the “Pre-emergence effect, Effect %, MATIN” value was found to be 90%. In the test on various unwanted plants (320 g/ha, comparative test), the “Pre-emergence effect, Effect %, ECHCG” value amounted to 100%; the “Pre-emergence effect, Effect %, LOLRI” value was 100%; the “Pre-emergence effect, Effect %, MATIN” value is reported as 90%. In addition, the “Pre-emergence effect, Effect %, POLCO” value in the test with various unwanted plants (POLCO, 80 g/ha, comparative test) is on record as 80%. Also, the “Pre-emergence effect, Effect %, SETVI” value with various unwanted plants (SETVI, 320 g/ha, comparative test) was 100%. Further, in the test with various unwanted plants (different harmful plants, 320 g or less per hectare, vs compounds from WO2020/245044), the “herbicidal efficacy by comparison to the structurally similar compounds (Tables 40a and 40b)” value is on record as “distinctly improved herbicidal efficacy”.
Take `COC(=O)C(OC)Oc1nn(-c2ccccc2F)c(-c2ccc(F)nc2)c1Br` (racemic) [Example I-04, Methyl (2RS)-{[4-bromo-1-(2-fluorophenyl)-5-(6-fluoropyridin-3-yl)-1H-pyrazol-3-yl]oxy}(methoxy)acetate]: the “Pre-emergence effect at 320 g/ha against ABUTH in %” value in the test on ABUTH is 80%. For the same compound, the “Pre-emergence effect at 320 g/ha against AVEFA in %” value with AVEFA is on record as 80%. In the test on PHBPU (80 g/ha), the “Pre-emergence effect at 80 g/ha against PHBPU in %” value came out at 80%. Moreover, the “Pre-emergence effect at 320 g/ha against PHBPU in %” value in the test with PHBPU came to 90%. The “Pre-emergence effect at 320 g/ha against VERPE in %” value with VERPE amounted to 90%. For the same compound, in the test on VIOTR (80 g/ha), the “Pre-emergence effect at 80 g/ha against VIOTR in %” value amounted to 80%. The “Pre-emergence effect at 320 g/ha against VIOTR in %” value in the test with VIOTR came out at 100%.
Turning to `COC(=O)C(OC)Oc1nn(-c2ncccc2F)c(-c2ccc(F)nc2)c1Br` (stereo not drawn) [Example I-05], the “Pre-emergence effect at 80 g/ha against GLXMA in %” value in the test on GLXMA amounted to 10%. In the test with AVEFA, the “Pre-emergence effect at 320 g/ha against AVEFA in %” value was 90%. Besides, the “Pre-emergence effect at 320 g/ha against DIGSA in %” value in the test with DIGSA [1] was 90%. Further, the “Pre-emergence effect at 320 g/ha against PHBPU in %” value in the test on PHBPU was 80%. Also, in the test with VIOTR, the “Pre-emergence effect at 320 g/ha against VIOTR in %” value came to 100%. Also, in the test on ZEAMX, the plant injury at 80 g/ha is 20%. For the same compound, the pest or weed control at 80 g/ha in the test on DIGSA [2] (80 g/ha) was 90%. The pest or weed control at 320 g/ha with DIGSA [2] (320 g/ha) was determined as 90%; in the test with POLCO, 80%.
